Measured values from publication PMC8199755, “In Vitro and In Vivo Trypanocidal Efficacy of Synthesized Nitrofurantoin Analogs” (Molecules, 2021).

Experiments:
T. b. brucei GUTat3.1 = assay: In vitro trypanocidal activity (CellTiter-Glo, 3 days); assay type: cell-based; conditions: Trypanosoma brucei, 72 h, bloodstream forms, 37 °C, mean ± SD of triplicate, read-out: Trypanocidal Activity IC50 ± SD, Tbb GUTat3.1
Experimental: (§1) The bloodstream forms of T. b. brucei GUTat3.1, T. b. rhodesiense IL1501, T. b. rhodesiense Chirundu, T. b. gambiense IL1922, and T. evansi Tansui strains were propagated in culture at 37 °C, whereas the T. congolense IL3000 strain was propagated at 33 °C in Hirumi’s modified Iscove’s medium-9, supplemented with 20% heat-inactivated fetal bovine serum. The bloodstream form cultures were maintained by replacing the entire culture supernatant with fresh medium, every other day.
(§2) The trypanocidal activity and cytotoxicity of nitrofurantoin analogs were evaluated according to previous reports, with some modifications. In brief, bloodstream forms adjusted at 2.5 × 10^3 cells/mL (T. b. brucei GUTat3.1, T. b. gambiense IL1922, and T. b. rhodesiense IL1501), 1 × 10^4 cells/mL (T. evansi Tansui and T. b. rhodesiense Chirundu), and 1 × 10^5 cells/mL (T. congolense IL3000), were cultivated in Nunc® MicroWell 96-well optical bottom plates (Thermo Fisher Scientific, Waltham, MA, USA) and exposed to various analogs at seven different concentrations for 3 days, in an incubator at 37 °C (33 °C for T. congolense IL3000). […] Twenty-five microliters of the Cell-TiterGlo® (Promega, Madison, WI, USA) reagent was added into each well, and bioluminescence was measured using a GloMax®-Multi+Detection System plate reader (Promega).
(§3) The half maximum inhibitory concentration (IC50) of each analog in trypanosomes and the Madin–Darby bovine kidney cells was calculated using the GraphPad Prism version 8 software (GraphPad, Inc., San Diego, CA, USA).

T. b. gambiense IL1922 = assay: as above; assay type: cell-based; conditions: Trypanosoma brucei, 72 h, bloodstream forms, 37 °C, mean ± SD of triplicate, read-out: Trypanocidal Activity IC50 ± SD, Tbg IL1922
Experimental: as §1, §2, §3

[1] = tested on: T. b. rhodesiense Chirundu; assay: as above; assay type: cell-based; conditions: Trypanosoma brucei, 72 h, bloodstream forms, 37 °C, mean ± SD of triplicate, read-out: Trypanocidal Activity IC50 ± SD, Tbr Chirundu
Experimental: as §1, §2, §3

T. b. rhodesiense IL1501 = assay: as above; assay type: cell-based; conditions: Trypanosoma brucei, 72 h, bloodstream forms, 37 °C, mean ± SD of triplicate, read-out: Trypanocidal Activity IC50 ± SD, Tbr IL1501
Experimental: as §1, §2, §3

T. congolense IL3000 [2] = assay: as above; assay type: cell-based; conditions: Trypanosoma congolense, 72 h, bloodstream forms, 33 °C, mean ± SD of triplicate, read-out: Trypanocidal Activity IC50 ± SD, Tc IL3000
Experimental: as §1, §2, §3

T. evansi Tansui = assay: as above; assay type: cell-based; conditions: 72 h, bloodstream forms, 37 °C, mean ± SD of triplicate, read-out: Trypanocidal Activity IC50 ± SD, Tev Tansui
Experimental: as §1, §2, §3

[3] = Cytotoxicity (Cell Counting Kit-8, 3 days); assay type: cell-based, bovine; conditions: bovine, Madin–Darby bovine kidney (MDBK) cells, 37 °C, mean ± SD of triplicate
Experimental: (§4) Additionally, Madin–Darby bovine kidney cells were cultivated (density, 1 × 10^4 cells/mL) in a 96-well cell culture plate (Thermo Fisher Scientific) with the analogs, at seven different concentrations for 3 days at 37 °C. Next, 10 µl of the Cell Counting Kit-8 solution (Dojindo, Kumamoto, Japan) was added into each well […] 4 h of incubation. Absorbance was measured at 450 nm using a GloMax®-Multi+Detection System plate reader.
as §3

mycobacterial = tested on: mycobacterial; parameters: method as in PMID 32044516; conditions: more potent than nitrofurantoin; cited from earlier work
T. congolense IL3000 [4] = assay: In vivo treatment efficacy in mice infected with T. congolense; parameters: species or system BALB/c mice; conditions: for time by which all mice died because of high parasitemia: intraperitoneal injection at 0.1 mg/kg; for time by which all mice died because of high parasitemia / time by which all mice succumbed to high parasite levels: 7 consecutive days from 2 dpi
Experimental: Healthy female 8-week-old BALB/c mice (CLEA Japan, Inc., Tokyo, Japan) were used in this study. All animals had ad libitum access to normal chow and water.
The virulent T. congolense IL3000 strain was propagated in a mouse and used for infection. The parasites were passaged once in a mouse before the experiment. The experimental mice were intraperitoneally infected with 100 μL of T. congolense in phosphate-buffered saline, containing 10% glucose at 1 × 10^3 cells/mouse. First, the mice were randomly divided into six groups of three mice, each as follows. Group I (no treatment), mice were not infected and were only treated with solvent (10% dimethyl sulfoxide–phosphate–buffered saline). Group II received 3.5 mg/kg of diminazene aceturate treatment. Groups III (9), IV (11), V (12), and VI were treated with nitrofurantoin and the mice were infected and intraperitoneally treated with 0.1 mg/kg of the compound.
In the second experiment, the mice were randomly divided into six groups of three mice, each as follows—group I received no treatment; group II received 3.5 mg/kg of diminazene aceturate treatment; and groups III (9), IV (11), V (12), and VI received nitrofurantoin—the mice were infected and orally treated with 10 mg/kg of the compound.
Treatment was initiated at 2 days post-infection (dpi) and continued for seven consecutive days. The treatments were freshly prepared each day. Parasitemia was observed using a cell counting chamber until 14 dpi.

[5] = tested on: Madin–Darby bovine kidney cells; assay: Cytotoxicity (Cell Counting Kit-8, 3 days); assay type: cell-based; conditions: MDBK cells, 37 °C, mean ± SD of triplicate
Experimental: as §4, §3

[6] = tested on: six species/strains of animal and human trypanosomes; assay: In vitro trypanocidal activity, summary over all strains; assay type: cell-based; conditions: over the six trypanosome species/strains
Experimental: as §1
The trypanocidal activity and cytotoxicity of nitrofurantoin analogs were evaluated according to previous reports, with some modifications. […] Twenty-five microliters of the Cell-TiterGlo® (Promega, Madison, WI, USA) reagent was added into each well, and bioluminescence was measured using a GloMax®-Multi+Detection System plate reader (Promega).
as §3

[7] = after both oral (10 mg/kg) and intraperitoneal (0.1 mg/kg) administration
[8] = oral, 10 mg/kg, T. congolense-infected mice

SMILES	IC50 (T. b. brucei GUTat3.1)	IC50 (T. b. gambiense IL1922)	IC50 [1]	IC50 (T. b. rhodesiense IL1501)	IC50 (T. congolense IL3000 [2])	IC50 (T. evansi Tansui)	IC50 at 3 days [3]	anti-mycobacterial potency relative to nitrofurantoin (mycobacterial)	treatment efficacy against T. congolense infection in vivo (T. congolense IL3000 [4]; [7])	time by which all mice died because of high parasitemia (T. congolense IL3000 [4]; T. congolense-infected mice)	time by which all mice succumbed to high parasite levels (T. congolense IL3000 [4]; [8])	IC50 [5]	IC50 [6]	treatment efficacy against T. congolense infection in vivo (T. congolense IL3000 [4]; oral treatment, 10 mg/kg)	mice surviving until end of the experiment period (T. congolense IL3000 [4]; oral, 10 mg/kg, three mice per group, observed until 14 dpi)	parasitemia (T. congolense IL3000 [4]; group II, 3.5 mg/kg, T. congolense-infected mice)
CCCCCCCCN1C(=O)CN(/N=C/c2ccc([N+](=O)[O-])o2)C1=O [Analog 8, (E)-1-([(5-Nitrofuran-2-yl)methylene]amino)-3-octylimidazolidine-2,4-dione]	1890 ± 690 nM	1400 ± 730 nM	39 ± 8.4 nM	1380 ± 820 nM	30 ± 5 nM	810 ± 82 nM	84700 ± 8990 nM	30 fold								
CCCCCCCCCN1C(=O)CN(/N=C/c2ccc([N+](=O)[O-])o2)C1=O [Analog 9, (E)-1-([(5-Nitrofuran-2-yl)methylene]amino)-3-nonylimidazolidine-2,4-dione]	570 ± 220 nM	440 ± 170 nM	17 ± 6.7 nM	600 ± 540 nM	10 ± 3.5 nM	270 ± 25 nM	251000 ± 58300 nM		no treatment efficacy	≤ 9 dpi	≤ 9 dpi					
CCCCCCCCCCCN1C(=O)CN(/N=C/c2ccc([N+](=O)[O-])o2)C1=O [Analog 11, (E)-1-([(5-Nitrofuran-2-yl)methylene]amino)-3-undecylimidazolidine-2,4-dione]	330 ± 120 nM	330 ± 120 nM	21 ± 9.4 nM	240 ± 130 nM	11 ± 3.5 nM	160 ± 14 nM	> 246000 nM		no treatment efficacy	≤ 9 dpi	≤ 9 dpi	> 255000 nM	< 340 nM			
CCCCCCCCCCCCN1C(=O)CN(/N=C/c2ccc([N+](=O)[O-])o2)C1=O [Analog 12, (E)-3-Dodecyl-1-([(5-nitrofuran-2-yl)methylene]amino)imidazolidine-2,4-dione]	340 ± 120 nM	230 ± 130 nM	31 ± 11 nM	260 ± 110 nM	12 ± 4.5 nM	200 ± 17 nM	> 246000 nM		no treatment efficacy	≤ 9 dpi	≤ 9 dpi		< 340 nM			
O=C1CN(/N=C/c2ccc([N+](=O)[O-])o2)C(=O)N1 [Nitrofurantoin]	1420 ± 150 nM	1620 ± 280 nM		1420 ± 250 nM	360 ± 43 nM	1960 ± 500 nM				≤ 9 dpi				partial efficacy	two of three	
CC(=O)NCC(=O)O.CC(=O)NCC(=O)O.N=C(N)c1ccc(N=NNc2ccc(C(=N)N)cc2)cc1 [diminazene aceturate, reference compound]																not observed
